Assay results: US11331299B2, “Medicinal use of serrulatane diterpenes” (The University of Sydney, priority 2016, dated 2022)
Several values for one entry are separate records, joined by “and”; a condition that tells them apart may be missing. Equal entries are not always repeated. Where two headings read alike, the source gives them in different places.

Key:
[1] = assay type: in vivo, female NOD/SCID mice; settings: for Body Weight: single animals No. 1-3
Experimental: Two studies were conducted by Eurofins Panlabs Taiwan, Ltd. The purpose of Study 1 was to assess the possible adverse effects of Compound 1 alone or in combination with […] in Maximum Tolerated Dose (MTD) assay. The purpose of Study 2 is a follow-up study performed at escalating doses.
Compound 1 was dissolved in 10% Tween 20/90% PBS or 20% Tween 20/80% PBS for IP injections. Compound 1 was administrated alone or in combination with […] at a dosing volume of 10 or 20 mL/kg for each substance.
For mortality, test substance (Compound 1; 100 mg/kg) alone or in combination with […] (8.75, 17.5, or 35 mg/kg; given on the same day) was administered to mice by IP injection to evaluate the possible adverse effects in MTD assay. […]. […]
A follow-up MTD study was performed to evaluate for the adverse effects of the test substance (Compound 1) at escalating doses alone or in combination with […] (17.5 mg/kg) via IP in a group of 3 female NOD/SCID mice at 6-7 weeks of age.
For mortality, treatment with Compound 1 at escalating doses (200 mg/kg) alone and in combination with […] (17.5 mg/kg; given on the same day) were administered by IP injection to a group of 3 female NOD/SCID mice at 6-7 weeks of age. The mortality was monitored at 30 min and again at 3, 24, 48 and 72 hours after compound administrations.
For body weight, test substance (Compound 1) at escalating doses (200 mg/kg) alone or in combination with […] (17.5 mg/kg; given on the same day) were administered by IP injection to a group of 3 female NOD/SCID mice at 6-7 weeks of age. The body weight of each animal was measured and recorded daily for 3 days.
For behavioral, symptomatic i.e. neurological and autonomic signs, test substance (Compound 1; 200 mg/kg) alone or in combination with […] (17.5 mg/kg; given on the same day) were administered by IP injection to a group of 3 female NOD/SCID mice at 6-7 weeks of age. The animals were then observed for presences of acute toxic symptoms and autonomic effects for 30 min after the first dose.

enzymes (Bioprint panel) [2] = target: enzymes (Bioprint panel) (Homo sapiens, UniProt P24941); assay: biochemical; settings: CDK2 (h) (cycA); 10 μM; read-out: % Inhibition of Control Values
enzymes (Bioprint panel) [3] = target: enzymes (Bioprint panel) (Rattus norvegicus, UniProt P21396); assay: biochemical; settings: MAO-A (antagonist radioligand); 10 μM; read-out: % Inhibition of Control Values
enzymes (Bioprint panel) [4] = target: enzymes (Bioprint panel) (Homo sapiens, UniProt P07948); assay: biochemical; settings: Lyn A kinase (h); 10 μM; read-out: % Inhibition of Control Values
enzymes (Bioprint panel) [5] = target: enzymes (Bioprint panel) (Homo sapiens, UniProt P12821); assay: biochemical; settings: ACE (h); 10 μM; read-out: % Inhibition of Control Values
enzymes (Bioprint panel) [6] = target: enzymes (Bioprint panel) (Homo sapiens, UniProt P56817); assay: biochemical; settings: BACE-1 (h) (beta -secretase); 10 μM; read-out: % Inhibition of Control Values
enzymes (Bioprint panel) [7] = target: enzymes (Bioprint panel) (Homo sapiens, UniProt Q9BYF1); assay: biochemical; settings: ACE-2 (h); 10 μM; read-out: % Inhibition of Control Values
enzymes (Bioprint panel) [8] = target: enzymes (Bioprint panel) (Homo sapiens, UniProt P06213); assay: biochemical; settings: IRK (h) (InsR); 10 μM; read-out: % Inhibition of Control Values
enzymes (Bioprint panel) [9] = target: enzymes (Bioprint panel) (Homo sapiens, UniProt O76074); assay: biochemical; settings: PDE5 (h) (non-selective); 10 μM; read-out: % Inhibition of Control Values
enzymes (Bioprint panel) [10] = target: enzymes (Bioprint panel) (Homo sapiens, UniProt P28482); assay: biochemical; settings: ERK2 (h) (P42mapk); 10 μM; read-out: % Inhibition of Control Values
enzymes (Bioprint panel) [11] = target: enzymes (Bioprint panel) (Homo sapiens, UniProt Q16539); assay: biochemical; settings: p38alpha kinase (h); 10 μM; read-out: % Inhibition of Control Values
enzymes (Bioprint panel) [12] = target: enzymes (Bioprint panel) (Homo sapiens, UniProt P42574); assay: biochemical; settings: caspase-3 (h); 10 μM; read-out: % Inhibition of Control Values
enzymes (Bioprint panel) [13] = target: enzymes (Bioprint panel) (Homo sapiens, UniProt P17948); assay: biochemical; settings: FLT-1 kinase (h) (VEGFR1); 10 μM; read-out: % Inhibition of Control Values
enzymes (Bioprint panel) [14] = target: enzymes (Bioprint panel) (Homo sapiens, UniProt P00519); assay: biochemical; settings: Abl kinase (h); 10 μM; read-out: % Inhibition of Control Values
enzymes (Bioprint panel) [15] = target: T1, enzymes (Bioprint panel) (UniProt A0ABM2YAB8); assay: biochemical; settings: MT3 (ML2) (agonist radioligand); 10 μM
T1 construct: other: MT3 (ML2) (agonist radioligand); 10 μM

enzymes (Bioprint panel) [16] = target: enzymes (Bioprint panel) (Homo sapiens, UniProt P22303); assay: biochemical; settings: acetylcholinesterase (h); 10 μM; read-out: % Inhibition of Control Values
[17] = 200 mg/kg IP, individual mice No. 1-3, 30 min after first dose, Study 2 Round 1
For Autonomic signs: Death in this document: key: −: no effects; ±: Slight to moderate effects; +: Severe effects; ↓: Low; D: Deep.
For Autonomic signs: Dec. Palpebral Size in this document: key: −: no effects; ±: Slight to moderate effects; +: Severe effects; ↓: Low; D: Deep.
For Autonomic signs: Diarrhea in this document: key: −: no effects; ±: Slight to moderate effects; +: Severe effects; ↓: Low; D: Deep.
For Autonomic signs: Inc. Palpebral Size in this document: key: −: no effects; ±: Slight to moderate effects; +: Severe effects; ↓: Low; D: Deep.

Sequence of enzymes (Bioprint panel) (Homo sapiens, UniProt P22303) (P22303 32-614): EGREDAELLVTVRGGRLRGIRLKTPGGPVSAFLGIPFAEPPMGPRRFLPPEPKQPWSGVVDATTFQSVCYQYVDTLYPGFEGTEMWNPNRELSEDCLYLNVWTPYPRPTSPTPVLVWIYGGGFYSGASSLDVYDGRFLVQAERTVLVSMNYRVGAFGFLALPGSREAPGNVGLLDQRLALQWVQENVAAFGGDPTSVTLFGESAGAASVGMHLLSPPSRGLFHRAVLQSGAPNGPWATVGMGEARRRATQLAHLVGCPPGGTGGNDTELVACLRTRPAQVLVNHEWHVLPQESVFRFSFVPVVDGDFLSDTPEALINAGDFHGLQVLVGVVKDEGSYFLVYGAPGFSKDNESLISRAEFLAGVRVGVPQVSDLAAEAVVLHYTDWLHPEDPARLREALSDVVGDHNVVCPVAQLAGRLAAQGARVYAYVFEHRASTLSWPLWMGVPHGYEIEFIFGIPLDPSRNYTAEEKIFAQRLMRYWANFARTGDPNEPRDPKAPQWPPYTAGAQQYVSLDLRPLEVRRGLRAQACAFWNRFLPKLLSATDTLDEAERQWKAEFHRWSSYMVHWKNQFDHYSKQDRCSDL
Sequence of enzymes (Bioprint panel) (Homo sapiens, UniProt P56817) (P56817 46-501): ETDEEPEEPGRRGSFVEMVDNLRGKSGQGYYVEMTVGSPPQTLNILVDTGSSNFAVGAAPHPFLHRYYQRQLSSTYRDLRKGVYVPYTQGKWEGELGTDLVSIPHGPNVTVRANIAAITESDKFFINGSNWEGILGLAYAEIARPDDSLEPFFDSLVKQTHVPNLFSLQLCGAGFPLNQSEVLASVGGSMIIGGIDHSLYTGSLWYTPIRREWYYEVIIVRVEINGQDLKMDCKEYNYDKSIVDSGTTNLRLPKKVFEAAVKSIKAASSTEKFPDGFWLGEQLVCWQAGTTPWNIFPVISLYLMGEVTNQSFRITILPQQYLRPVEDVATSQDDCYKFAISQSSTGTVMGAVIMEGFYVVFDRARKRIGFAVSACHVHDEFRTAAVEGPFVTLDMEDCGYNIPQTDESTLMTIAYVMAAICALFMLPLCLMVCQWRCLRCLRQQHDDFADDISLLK
Sequence of enzymes (Bioprint panel) (Homo sapiens, UniProt P42574) (P42574 29-277): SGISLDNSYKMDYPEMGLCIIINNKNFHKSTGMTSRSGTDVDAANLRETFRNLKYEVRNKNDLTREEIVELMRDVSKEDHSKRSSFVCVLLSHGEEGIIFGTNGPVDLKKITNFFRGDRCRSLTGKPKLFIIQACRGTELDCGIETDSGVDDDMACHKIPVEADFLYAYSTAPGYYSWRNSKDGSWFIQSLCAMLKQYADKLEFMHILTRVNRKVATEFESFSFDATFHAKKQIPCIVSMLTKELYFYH
Sequence of enzymes (Bioprint panel) (Homo sapiens, UniProt P28482) (P28482 whole entry): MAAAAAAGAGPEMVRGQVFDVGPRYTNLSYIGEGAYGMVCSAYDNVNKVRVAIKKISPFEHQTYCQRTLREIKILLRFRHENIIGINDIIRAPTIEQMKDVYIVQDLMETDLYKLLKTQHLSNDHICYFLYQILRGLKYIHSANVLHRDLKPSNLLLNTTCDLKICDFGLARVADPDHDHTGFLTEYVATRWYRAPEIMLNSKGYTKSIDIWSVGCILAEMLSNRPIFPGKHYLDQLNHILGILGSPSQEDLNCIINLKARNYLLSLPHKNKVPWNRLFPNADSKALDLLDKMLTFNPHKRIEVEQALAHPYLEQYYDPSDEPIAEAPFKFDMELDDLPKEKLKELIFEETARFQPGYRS
Sequence of enzymes (Bioprint panel) (Homo sapiens, UniProt P06213) (P06213 28-1382): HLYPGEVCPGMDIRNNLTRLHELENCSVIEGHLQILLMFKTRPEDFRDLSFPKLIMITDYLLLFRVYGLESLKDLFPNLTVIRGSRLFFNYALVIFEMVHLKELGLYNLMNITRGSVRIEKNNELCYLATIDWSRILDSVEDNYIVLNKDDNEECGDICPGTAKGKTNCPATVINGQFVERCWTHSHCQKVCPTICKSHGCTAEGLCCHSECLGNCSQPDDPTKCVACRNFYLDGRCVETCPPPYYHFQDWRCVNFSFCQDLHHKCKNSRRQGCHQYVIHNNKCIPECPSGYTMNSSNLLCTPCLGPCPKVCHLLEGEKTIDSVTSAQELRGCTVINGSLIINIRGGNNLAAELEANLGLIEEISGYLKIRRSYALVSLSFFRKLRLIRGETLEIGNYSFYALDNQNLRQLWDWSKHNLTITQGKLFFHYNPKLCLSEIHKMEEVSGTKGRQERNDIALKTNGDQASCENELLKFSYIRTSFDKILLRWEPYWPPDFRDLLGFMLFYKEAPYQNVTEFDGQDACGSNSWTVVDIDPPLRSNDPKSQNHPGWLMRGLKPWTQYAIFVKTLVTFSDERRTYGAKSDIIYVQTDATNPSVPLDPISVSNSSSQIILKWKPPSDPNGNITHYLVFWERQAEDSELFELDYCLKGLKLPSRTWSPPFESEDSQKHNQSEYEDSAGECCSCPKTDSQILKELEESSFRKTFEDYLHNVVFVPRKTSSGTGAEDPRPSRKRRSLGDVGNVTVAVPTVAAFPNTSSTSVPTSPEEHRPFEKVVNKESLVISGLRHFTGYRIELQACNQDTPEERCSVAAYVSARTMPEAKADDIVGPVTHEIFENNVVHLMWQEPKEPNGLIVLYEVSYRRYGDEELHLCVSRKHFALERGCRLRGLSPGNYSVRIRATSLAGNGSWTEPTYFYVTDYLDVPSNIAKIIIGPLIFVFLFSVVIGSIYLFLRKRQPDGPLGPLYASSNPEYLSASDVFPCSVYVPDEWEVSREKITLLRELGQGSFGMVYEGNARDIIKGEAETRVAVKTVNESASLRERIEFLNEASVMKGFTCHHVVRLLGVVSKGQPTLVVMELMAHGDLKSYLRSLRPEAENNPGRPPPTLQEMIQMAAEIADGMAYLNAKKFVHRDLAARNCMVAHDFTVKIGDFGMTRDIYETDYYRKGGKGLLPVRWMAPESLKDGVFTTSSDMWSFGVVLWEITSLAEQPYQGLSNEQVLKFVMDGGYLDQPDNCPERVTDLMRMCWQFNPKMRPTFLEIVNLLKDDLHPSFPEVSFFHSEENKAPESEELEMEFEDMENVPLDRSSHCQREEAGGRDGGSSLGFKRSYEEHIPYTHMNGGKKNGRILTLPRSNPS
Sequence of enzymes (Bioprint panel) (Homo sapiens, UniProt Q9BYF1) (Q9BYF1 18-805): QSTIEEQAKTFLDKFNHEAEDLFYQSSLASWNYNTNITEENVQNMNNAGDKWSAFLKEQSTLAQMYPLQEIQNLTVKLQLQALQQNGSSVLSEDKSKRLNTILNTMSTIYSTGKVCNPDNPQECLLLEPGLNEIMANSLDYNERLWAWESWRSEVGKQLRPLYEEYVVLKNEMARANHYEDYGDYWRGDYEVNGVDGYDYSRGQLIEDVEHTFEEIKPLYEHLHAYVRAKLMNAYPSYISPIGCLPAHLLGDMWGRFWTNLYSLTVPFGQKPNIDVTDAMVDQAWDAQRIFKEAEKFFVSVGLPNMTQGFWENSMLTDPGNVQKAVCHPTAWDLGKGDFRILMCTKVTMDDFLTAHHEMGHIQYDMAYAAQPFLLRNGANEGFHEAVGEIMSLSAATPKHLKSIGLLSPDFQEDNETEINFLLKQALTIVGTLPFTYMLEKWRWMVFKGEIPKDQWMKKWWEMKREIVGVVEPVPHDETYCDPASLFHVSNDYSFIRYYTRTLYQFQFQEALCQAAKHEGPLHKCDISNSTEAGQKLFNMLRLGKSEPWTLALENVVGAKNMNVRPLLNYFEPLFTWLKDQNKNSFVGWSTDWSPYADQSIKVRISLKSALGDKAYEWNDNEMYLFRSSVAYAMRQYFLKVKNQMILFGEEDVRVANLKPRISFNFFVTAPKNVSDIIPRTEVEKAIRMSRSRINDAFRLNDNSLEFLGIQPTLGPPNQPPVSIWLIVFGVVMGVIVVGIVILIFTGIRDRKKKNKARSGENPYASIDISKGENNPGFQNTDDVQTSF
Sequence of enzymes (Bioprint panel) (Homo sapiens, UniProt P12821) (P12821 30-1306): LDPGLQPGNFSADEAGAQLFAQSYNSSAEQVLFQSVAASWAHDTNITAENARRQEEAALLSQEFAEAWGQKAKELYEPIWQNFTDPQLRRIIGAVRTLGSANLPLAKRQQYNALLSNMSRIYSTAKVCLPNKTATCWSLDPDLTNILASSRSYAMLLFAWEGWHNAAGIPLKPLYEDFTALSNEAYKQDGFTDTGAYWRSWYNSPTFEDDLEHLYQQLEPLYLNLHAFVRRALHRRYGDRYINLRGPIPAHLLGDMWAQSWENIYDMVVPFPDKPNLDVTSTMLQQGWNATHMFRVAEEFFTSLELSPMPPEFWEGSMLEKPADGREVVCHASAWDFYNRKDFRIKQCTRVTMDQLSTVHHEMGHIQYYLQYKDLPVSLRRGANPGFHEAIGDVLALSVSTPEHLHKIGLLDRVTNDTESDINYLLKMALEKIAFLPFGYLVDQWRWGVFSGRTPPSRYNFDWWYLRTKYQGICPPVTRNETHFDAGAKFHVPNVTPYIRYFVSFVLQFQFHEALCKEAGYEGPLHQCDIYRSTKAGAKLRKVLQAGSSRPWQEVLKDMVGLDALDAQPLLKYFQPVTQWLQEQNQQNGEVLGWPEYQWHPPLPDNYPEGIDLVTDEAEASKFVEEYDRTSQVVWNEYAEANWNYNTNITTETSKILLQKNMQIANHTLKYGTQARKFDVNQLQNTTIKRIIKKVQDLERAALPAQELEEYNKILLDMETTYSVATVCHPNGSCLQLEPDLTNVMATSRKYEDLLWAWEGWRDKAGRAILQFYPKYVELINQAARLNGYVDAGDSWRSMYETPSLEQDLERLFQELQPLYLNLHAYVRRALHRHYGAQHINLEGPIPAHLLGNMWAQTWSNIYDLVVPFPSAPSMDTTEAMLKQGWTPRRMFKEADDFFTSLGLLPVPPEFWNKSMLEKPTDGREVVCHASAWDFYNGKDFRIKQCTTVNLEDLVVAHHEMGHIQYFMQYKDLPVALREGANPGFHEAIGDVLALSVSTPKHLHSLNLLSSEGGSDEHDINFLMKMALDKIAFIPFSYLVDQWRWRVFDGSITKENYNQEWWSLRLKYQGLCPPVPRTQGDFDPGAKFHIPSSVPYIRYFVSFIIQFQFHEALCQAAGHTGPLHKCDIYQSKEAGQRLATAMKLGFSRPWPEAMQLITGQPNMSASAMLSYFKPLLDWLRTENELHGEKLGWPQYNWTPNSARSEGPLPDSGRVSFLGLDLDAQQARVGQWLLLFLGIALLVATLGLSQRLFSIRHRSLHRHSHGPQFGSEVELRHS

CC(C)=CCC[C@H](CO)[C@@H]1CC[C@@H](C)c2c1cc(C)c(O)c2O [Compound 1, 7,8,18-trihydroxyserrulat-14-ene]
Autonomic signs: Body Temperature [1, 17]: ↓+ | Autonomic signs: Death [1, 17]: − | Autonomic signs: Dec. Palpebral Size [1, 17]: − | Autonomic signs: Diarrhea [1, 17]: − | Autonomic signs: Inc. Palpebral Size [1, 17]: − | Autonomic signs: Lacrimation [1, 17]: − | Autonomic signs: Others [1, 17]: − | Autonomic signs: Piloerection [1, 17]: − | Autonomic signs: Salivation F.V. [1, 17]: − | Autonomic signs: Skin Color [1, 17]: − | adverse effects ([1]; Study 1, Compound 1 100 mg/kg IP alone): did not elicit significant adverse effects | survival ([1]; Study 1, Compound 1 100 mg/kg IP alone, 72-hour observation period): All test animals survived | Response (death/test) ([1]; Study 1, IP, 100 mg/kg, 30 min): 0/3 | Response (death/test) ([1]; Study 1, IP, 100 mg/kg, 3 hrs): 0/3 | Response (death/test) ([1]; Study 1, IP, 100 mg/kg, Day 1): 0/3 | Response (death/test) ([1]; Study 1, IP, 100 mg/kg, Day 2): 0/3 | Response (death/test) ([1]; Study 1, IP, 100 mg/kg, Day 3): 0/3 | autonomic sign ([1]; Study 2, 200 mg/kg IP, 30 min after dose): Hypothermia | Response (death/test) ([1]; Study 2, IP, 200 mg/kg, 30 min): 0/3 | Response (death/test) ([1]; Study 2, IP, 200 mg/kg, 3 hrs): 0/3 | Body Weight ([1]; Study 2, IP, 200 mg/kg, Day 0, 200 mg/kg): 22 g and 21 g (2×) | Response (death/test) ([1]; Study 2, IP, 200 mg/kg, Day 1): 1/3 | Body Weight ([1]; Study 2, IP, 200 mg/kg, Day 1): 21 g | Response (death/test) ([1]; Study 2, IP, 200 mg/kg, Day 2): 3/3 | Response (death/test) ([1]; Study 2, IP, 200 mg/kg, Day 3): 3/3 | B.W. ([1]; Study 2 Round 1, signs table, IP, 200 mg/kg, animals No. 1-3): 22 g and 21 g | inhibition at 10 µM (enzymes (Bioprint panel) [2]): 12% | inhibition at 10 µM (enzymes (Bioprint panel) [3]): 15% | inhibition at 10 µM (enzymes (Bioprint panel) [4]): 9% | inhibition at 10 µM (enzymes (Bioprint panel) [5]): 14% | inhibition at 10 µM (enzymes (Bioprint panel) [6]): 0% | inhibition at 10 µM (enzymes (Bioprint panel) [7]): -3% | inhibition at 10 µM (enzymes (Bioprint panel) [8]): -15% | inhibition at 10 µM (enzymes (Bioprint panel) [9]): 11% | inhibition at 10 µM (enzymes (Bioprint panel) [10]): 6% | inhibition at 10 µM (enzymes (Bioprint panel) [11]): 4% | inhibition at 10 µM (enzymes (Bioprint panel) [12]): -3% | inhibition at 10 µM (enzymes (Bioprint panel) [13]): 36% | inhibition at 10 µM (enzymes (Bioprint panel) [14]): 14% | % Inhibition of Control Values (enzymes (Bioprint panel) [15]): 31% | inhibition at 10 µM (enzymes (Bioprint panel) [16]): 32%
